Laboratory results from US8604212B2, “Anti-shock agent comprising diaminotrifluoromethylpyridine derivative” (Ishihara Sangyo Kaisha, Ltd., priority 2009, dated 2013).

Tested on: mouse models with septic shock, the onset of which was peritonitis triggered by the cecal puncture
Assay: Therapeutic effect on mouse models with septic shock, the onset of which was peritonitis triggered by the cecal puncture (viability test)
Format: in vivo
Conditions: for surviving rate: female BALB/c mice
Text: Therapeutic effects of N-(2-ethylsulfonylamino-5-trifluoromethyl-3-pyridyl)cylohexanecarboxamide sodium salt monohydrate (hereinafter referred to as compound 1) on mouse models with septic shock, the onset of which was peritonitis triggered by the cecal puncture, was examined.
The compound 1 was used as a drug formulation. The formulation composition (content per one vial) was as follows.
Age: 7 weeks old when purchased and 8 weeks old when tested
The mice were pre-bred for about a week after purchase and then subjected to a test at about 8 weeks old. Breeding in the entire breeding period was carried out in an isolator placed in a large animal room. Ten mice in each group were accommodated in a polycarbonate cage throughout the test period, and they were freely fed on commercially available complete feed pellet (MF, manufactured by O. B. S.) and tap water subjected to activated carbon filtration (with use of a feed water bottle) throughout the breeding period. From the mice, mice which were healthily grown during the pre-breeding period were selected. Mice were randomly selected from the above selected mice and delivered to the respective groups one by one in the order of the animal number. The animal number was put in the order of put into a cage after the grouping.
Preparation of the drug was carried out immediately before the induction operation, and administration was carried out by using the prepared liquid for administration. Japanese Pharmacopoeia 5% glucose was injected to a formulated product containing 100 mg of the compound 1 to completely dissolve the compound 1, and a liquid for administration at the maximum dose was prepared by diluting with Japanese Pharmacopoeia 5% glucose, and a liquid for administration at a medium dose and a liquid for administration at a low dose were prepared by stepwise dilution of the liquid for administration at the maximum dose with Japanese Pharmacopoeia 5% glucose. For the non-treated group, Japanese Pharmacopoeia 5% glucose as a medium alone was prepared. Immediately after the induction, 4 hours later, 8 hours later and 12 hours later, the liquid was repeatedly administered subcutaneously to the dorsal neck to maintain the blood concentration. The liquid was administered in a volume of 10 ml/kg for each group.
Mice were anesthetized with gas-oxygen-fluothane, and the corpus 8 mm from the cecal apex was ligated through an abdominal incision, one spot in the apex was punctured and transfixed with a 22 G needle, and after leakage of cecal contents was confirmed, the cecum was completely replaced in the abdomen and the abdomen was closed.
Viability test was carried out for 3 days from immediately after the induction, and the results were summarized every 24 hours.
Employing the non-treated group as a control, comparison among groups of a group given with 0.1 mg/kg of the compound 1, a group given with 1 mg/kg of the compound 1 and a group given with 10 mg/kg of the compound 1 was carried out.
Viability test results: animals which died in 0 to 24 hours were scored 1, animals which died in 24 to 48 hours were scored 2, animals which died in 48 to 72 hours were scored 3, and animals which survived 72 hours or more were scored 4, and the obtained data were used.
Comparison among groups was carried out by Shirley-Williams' multiple comparison test.

Q: With `CCS(=O)(=O)Nc1ncc(C(F)(F)F)cc1NC(=O)C1CCCCC1.O.[Na]` [Compound 1, N-(2-ethylsulfonylamino-5-trifluoromethyl-3-pyridyl)cylohexanecarboxamide sodium salt monohydrate] as the molecule, how does the surviving rate (0.1 mg/kg x 4 times subcutaneous, 24 hr after induction of septic shock model) read?
A: 20%

Q: And the surviving rate (0.1 mg/kg x 4 times subcutaneous, 48 hr after induction of septic shock model)?
A: 0%

Q: And the surviving rate (0.1 mg/kg x 4 times subcutaneous, 72 hr after induction of septic shock model)?
A: 0%

Q: And the surviving rate (1 mg/kg x 4 times subcutaneous, 24 hr after induction of septic shock model)?
A: 40%

Q: What about the surviving rate (1 mg/kg x 4 times subcutaneous, 48 hr after induction of septic shock model) of the same molecule?
A: 10%

Q: What about the surviving rate (1 mg/kg x 4 times subcutaneous, 72 hr after induction of septic shock model) of the same molecule?
A: 10%

Q: And the surviving rate (10 mg/kg x 4 times subcutaneous, 24 hr after induction of septic shock model)?
A: 90%

Q: What about the surviving rate (10 mg/kg x 4 times subcutaneous, 48 hr after induction of septic shock model) of the same molecule?
A: 50%

Q: What about the surviving rate (10 mg/kg x 4 times subcutaneous, 72 hr after induction of septic shock model) of the same molecule?
A: 50%

Q: And the “improvement in the surviving rate versus non-treated group (Shirley-Williams' multiple comparison test)” value (administration of 10 mg/kg, P<0.001)?
A: improvement in the surviving rate with statical significance
